IC50 data for one compound are collected here from patent publication US5284853A, “Angiotensin II receptor blocking 2,3,6 substituted quinazolinones” (American Cyanamid Company, priority 1993, dated 1994).

This experiment deals with T1, Angiotensin II Receptor (Bos taurus, UniProt P25104).
T1 construct: The brownish tissue forming the adrenal cortex is scraped off and finely minced with scissors before homogenization; tissue local slaughter house (Maxwell-Cohen); host or cells: beef adrenal cortex, microsomal membranes (100,000×g pellet)
T1 sequence (P25104 1-359): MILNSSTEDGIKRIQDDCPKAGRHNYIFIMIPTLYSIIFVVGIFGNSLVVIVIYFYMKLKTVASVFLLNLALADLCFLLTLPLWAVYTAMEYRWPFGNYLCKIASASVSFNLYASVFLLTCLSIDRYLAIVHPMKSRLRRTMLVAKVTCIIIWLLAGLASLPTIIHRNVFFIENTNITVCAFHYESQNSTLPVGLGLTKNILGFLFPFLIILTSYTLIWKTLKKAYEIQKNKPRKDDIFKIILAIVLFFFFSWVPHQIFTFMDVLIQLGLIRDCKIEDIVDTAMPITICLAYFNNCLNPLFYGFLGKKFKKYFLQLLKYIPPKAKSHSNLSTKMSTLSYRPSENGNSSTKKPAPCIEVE
Description: Receptor binding assay: competition of [^125 I](Sar^1,Ile^8)AngII binding to beef adrenal cortex microsomal membranes. The following applies: 60 min, room temperature, pH 7.4.

A word on the IC50: it is the concentration that gives 50% inhibition. In turn, `CCCCc1nc2ccc(C3CC(c4ccc(C)o4)=NO3)cc2c(=O)n1Cc1ccc(-c2ccccc2-c2nnn[nH]2)cc1` (stereo not shown) [Example 19] returned an IC50 of 170 nM.
